Measurements published in patent publication US12697313B2, “Methods of treating anemia using formoterol or a pharmaceutically acceptable salt thereof” (Dana-Farber Cancer Institute, Inc., priority 2022, dated 2026).
Entries after “also recorded” stand apart in the source; their conditions may differ.

Tests used:
primary human HSPCs = assay: Mitochondrial functions in primary human HSPCs (mtDNA genes, TMRE, MitoTracker); format: cell-based
Protocol: Given the involvement of β2-AR in erythropoiesis, it was hypothesized that administration of long-acting selective β2-AR agonist FF might promote erythroid differentiation. To address this, primary human HSPCs were treated with varying doses of FF (Selleckchem). […] To ascertain if FF administration plays a role further upstream in the erythroid differentiation pathway, methylcellulose colony-formation assays were performed.
TMRE (T669, Invitrogen) and Mitotracker® (M22426, Life Technologies) and MitoSox® (M36008, Life Technologies) staining were performed as per the manufacturer's instructions.

[1] = tested on: phenylhydrazine (PHZ)-treated mice; assay: FF oral gavage in PHZ-treated mice at sub-lethal dose of 60 mg/kg; format: in vivo
[2] = tested on: cisplatin-treated CKD mice; assay: FF i.p. in cisplatin-driven chronic kidney disease (CKD) mice; format: in vivo
Protocol: Comparisons are shown in between cisplatin+FF treated mice as compared to cisplatin+ vehicle treated mice.
FF treatment at a low dose of 0.3 mg/kg 3× weekly (i.p.) alleviates RBC parameters, such as % changes in (FIG. 78A) hematocrit% (HCT%) (FIG. 78B) hemoglobin (Hb) and (FIG. 78C) RBCs in mice with cisplatin-driven CKD. * p<0.05, 2-way ANOVA. n=4-5 mice per group. Comparisons are shown in between cisplatin+FF treated mice as compared to cisplatin+ vehicle treated mice.

wild-type C57BL/6J mice = assay: Dose-specific effects of FF i.p. daily for 30 days in naive wild-type mice (Example 3); format: in vivo; conditions: for monocyte counts: FIG. 85B; for hemoglobin (Hb) levels: FIG. 84A; for RBC parameters (Hb, HCT %, RBC numbers): FIG. 84
Protocol: As described in Example 1 above, formoterol fumarate (FF) treatment of wild-type mice was well-tolerated (FIGS. 14A-14E). The effects of varying doses of FF from 0.1 up to 1.0 mg/kg were evaluated in naive mice without any external stress of phenylhydrazine (PHZ). Specifically, varying doses of FF 0.1-0.3-0.5-1.0 mg/kg or vehicle (0.3% DMSO in saline) were administered via intraperitoneal (i.p.) injection in 10-12 week old wild-type C57BL/6J mice daily for a period of 30 days.

Apcmin mice = assay: FF i.p. in Apcmin mice (intestinal adenoma model that develops anemia); format: in vivo
Protocol: This is a mouse model of intestinal adenoma that develops anemia. FF treatment at a low dose of 0.3 mg/kg daily (i.p.) alleviates RBC parameters, such as (FIG. 74A) RBCs (FIG. 74B) hematocrit% (HCT%) and (FIG. 74C) hemoglobin (Hb) in Apcmin mice that spontaneously develop anemia at ~3 months age. * p<0.05, *** p<0.001, 2-way ANOVA. n=5-6 mice per group. Comparisons are shown in between Apcmin+FF versus Apcmin+Veh. Veh: vehicle; LC: littermate control mice.

[3] = tested on: PHZ-induced lethal hemolytic anemia mice; assay: PHZ-mediated lethal hemolytic anemia, FF i.p.; format: in vivo; conditions: for body weights: 0.1/0.3 mg/kg
Protocol: To this end, 10-12 week old male C57BL/6J mice were first treated with a single lethal dose of 150 mg/kg PHZ followed by daily i.p. injections of either vehicle or 0.1/0.3 mg/kg FF. […] All control mice (n=5) were moribund and died by 3 days of lethal PHZ dose, whereas 3-4 mice in 0.1/0.3 mg/kg FF treatment groups are still surviving post 2 weeks of lethal dose (FIG. 42A). […] FF injections were stopped after 7 days of lethal PHZ treatment and it was observed that the body weights of mice were held steady (FIG. 42B). The body weights and survival of these mice are being monitored daily. This unexpected finding prompted us to repeat this lethal hemolytic anemia model in the female mice. […] The FF treatment lasted for 7 days after lethal PHZ dose and the body weights and survival of these mice are being monitored daily.

[4] = tested on: ovariectomized rat models; conditions: ovariectomized rat models (Kellenberger et al. 1998); cited from earlier work
RIOK2 KD HSPCs = assay: Erythroid differentiation in RIOK2 knockdown HSPCs; format: cell-based, human; conditions: RIOK2 KD HSPCs vs DMSO; FIG. 6B, FIG. 45
From the text: Since RIOK2-deficient primary human HSPCs effectively model impaired erythropoiesis leading to anemia (Ghosh et la. (2022) Nat Immunol 23: 109-121), it was next investigated whether treatment with formoterol fumarate (FF) alleviates anemia in this in vitro model. To address this, RIOK2-proficient and deficient primary human HSPCs via CRISPR-Cas9 based genome-editing were generated (FIG. 6A), as previously described (Ghosh et al. (2022) Nat Immunol 23: 109-121). […] Since RPS14 deletion is reported to be MDS-genic (Ebert et al. (2008) Nature 451: 335-339; Schneider et al. (2016) Nat Med 22: 288-297), RPS14 was similarly knocked down in primary human HSPCs (FIG. 6C).
Primary human HSPCs were genome-edited, as previously described (Ghosh, S., Raundhal, M., Myers, S. A., Carr, S. A., Chen, X., Petsko, G. A., and Glimcher, L. H. (2022). Identification of RIOK2 as a master regulator of human blood cell development. Nat Immunol 23, 109-121).

[5] = 14 days of daily o.g., PHZ 60 mg/kg, FIG. 59
[6] = female, PHZ 120 mg/kg, FF 0.1 mg/kg, n=5
[7] = female, PHZ 120 mg/kg, FF 0.3 mg/kg, n=5
[8] = male, PHZ 150 mg/kg, FF 0.1 mg/kg, n=5
[9] = male, PHZ 150 mg/kg, FF 0.3 mg/kg, n=5

## COc1ccc(C[C@@H](C)NC[C@H](O)c2ccc(O)c(NC=O)c2)cc1.O=C(O)/C=C/C(=O)O [FF, (E)-but-2-enedioic acid;N-[2-hydroxy-5-[(1R)-1-hydroxy-2-[[(2R)-1-(4-methoxyphenyl)propan-2-yl]amino]ethyl]phenyl]formamide]
Primary human HSPCs; FIG. 5B
  mitochondrial membrane potential (TMRE staining): elevated mitochondrial mass and membrane potential; also recorded: enhances mitochondrial membrane potential
Primary human HSPCs; FIG. 5C
  mitochondrial mass (MitoTracker staining): elevated mitochondrial mass and membrane potential; also recorded: increases mitochondrial mass
Primary human HSPCs; vs DMSO, FIG. 5A
  expression of mitochondrial DNA encoded genes MT-ND1, MT-CytB, MT-CO1, MT-ATP6: enhanced expression of mtDNA encoded genes required for OXPHOS; also recorded: enhances expression of mitochondrial DNA encoded genes
[1]; 14 days of daily o.g., FIG. 60
  granulocyte monocyte progenitors (GMP): does not affect granulocyte monocyte progenitors (GMP)
  megakaryocytic progenitors (MkP): increases megakaryocytic progenitors (MkP)
[1]; [5]
  mitochondrial membrane potential (TMRE staining) in BMPs: increases viability and mitochondrial membrane potential
  viability of BMPs: increases viability and mitochondrial membrane potential
[1]; o.g., PHZ 60 mg/kg, FIG. 56
  body weights: does not affect body weights
[1]; o.g., PHZ 60 mg/kg, FIG. 57
  RBC parameters (HCT % and Hb) in peripheral blood: increases RBC parameters
[1]; o.g., PHZ 60 mg/kg, FIG. 58
  WBC and platelets in peripheral blood: does not affect WBC and platelets
[2]; 0.3 mg/kg 3× weekly i.p., FIG. 78
  % changes in RBC parameters (HCT%, Hb, RBCs): rescues anemia
[2]; 0.3 mg/kg 3× weekly i.p., FIG. 79
  absolute values of RBC parameters (Hb, HCT %, RBCs): elevates RBC parameters
[2]; 0.3 mg/kg 3× weekly i.p., FIG. 81A
  terminal erythroid progenitors in the BM: elevates erythroid progenitors
[2]; FIG. 77
  serum BUN and creatinine levels: does not affect serum BUN and creatinine levels
[2]; FIG. 80
  WBCs and platelets: does not affect WBC parameters
[2]; i.p., vs cisplatin+vehicle, FIG. 76
  body weights: significantly rescues (elevates) body weights
wild-type C57BL/6J mice; 0.1 mg/kg and 1.0 mg/kg
  monocyte counts: but not at the lowest dose (0.1 mg/kg) or highest dose (1.0 mg/kg)
wild-type C57BL/6J mice; 0.1 mg/kg to 0.5 mg/kg
  hemoglobin (Hb) levels: increased with dose
wild-type C57BL/6J mice; 0.3 mg/kg and 0.5 mg/kg, FIG. 84B-84C
  hematocrit (HCT) % and RBC counts: elevated
wild-type C57BL/6J mice; 1.0 mg/kg
  body weights: pronounced increase in body weights
  RBC parameters (Hb, HCT %, RBC numbers): this effect is not observed
  hemoglobin (Hb) levels: no effect was observed
wild-type C57BL/6J mice; 1.0 mg/kg, FIG. 85A
  white blood cell (WBC) count: modestly impacts WBC; also recorded: only marginally affected
wild-type C57BL/6J mice; 0.1-0.5 mg/kg
  body weights: modestly increasing body weights
wild-type C57BL/6J mice; 0.1/0.3/0.5/1.0 mg/kg daily i.p., FIG. 83
  % change in body weights: increases body weights in a dose-dependent manner; also recorded: showed a dose-dependent increase in body-weight
wild-type C57BL/6J mice; 0.3 and 0.5 mg/kg
  RBC parameters (Hb, HCT %, RBC numbers): enhance and sustain RBC parameters
  monocyte counts: modestly impacts monocyte counts; also recorded: marginally affected
wild-type C57BL/6J mice; any dose, FIG. 85C
  platelets: No significant effect was observed
wild-type C57BL/6J mice; lowest doses, FIG. 85A
  white blood count (WBC) numbers: does not influence
Apcmin mice; 0.3 mg/kg daily i.p., FIG. 74
  RBC parameters (RBCs, HCT%, Hb): elevates RBC parameters
Apcmin mice; FIG. 75
  body weight: modestly increases body weight
[3]; female mice, PHZ 120 mg/kg, FF 0.1/0.3 mg/kg, FIG. 42C
  survival (Kaplan-Meier): provided prominent survival benefits
[3]; female, PHZ 120 mg/kg, FIG. 42D
  body weights: similarly revived body weights; also recorded: steadily increases body weights of female mice
[3]; [6]
  mice died on day 2: 1 mouse
  mice still surviving post lethal PHZ dose: 4 mice
[3]; [7]
  mice died on day 2: 2 mice
  mice still surviving post lethal PHZ dose: 3 mice
[3]; male mice, PHZ 150 mg/kg, FF 0.1/0.3 mg/kg daily i.p., FIG. 42A
  survival (Kaplan-Meier): produced striking survival benefits
[3]; male, PHZ 150 mg/kg, 0.1/0.3 mg/kg FF groups, n=5
  mice still surviving post 2 weeks of lethal dose: 3-4 mice
[3]; male, PHZ 150 mg/kg, FIG. 42B
  body weights: produced remarkable revival in body weights; also recorded: steadily increases body weights of male mice
[3]; [8]
  mice died on day 2: 2 mice
  mice still surviving post lethal PHZ dose: 3 mice
[3]; [9]
  mice died on day 2: 1 mouse
  mice still surviving post lethal PHZ dose: 4 mice
[4]
  effects on bone: anabolic effects on bone
RIOK2 KD HSPCs
  erythroid differentiation (CD235a): stimulated erythropoiesis in RIOK2-knockdown (KD) HSPCs; also recorded: to levels comparable with basal erythropoiesis in control cells; also recorded: increases erythroid differentiation (CD235a) in RIOK2 KD HSPCs; also recorded: markedly rescues erythropoiesis
